30 substances from US20070203066A1, “Compositions and methods for inhibiting cellular proliferation” (priority 2005, published 2007) can be followed below.

pIC50: −log10 of the molar value. No end group written: not given here.

This assay concerns HUVECs. Format: cell-based. The note with it: HUVEC proliferation, bFGF at 10 ng/ml or VEGF at 5 ng/ml, 48 hours, BrdU incorporation; read-out: IC50 on HUVECs. On the procedure:
HUVECs were routinely cultured to near confluency in EGM media (Clontech, Mountain View, California). The cells were trypsinized and plated in a 96-well plate at 5,000 cells per well per 100 μl EBM supplemented with 2% FCS and antibiotics. The cells were allowed to adhere to the plate for at least 12 hours. Then, bFGF at 10 ng/ml or VEGF at 5 ng/ml, and various concentrations of peptide, were added to the wells. The cells were cultured for 48 hours at 37 ° C. in a 5% CO2 atmosphere. Cell proliferation was determined using a bromo-deoxyuridine (BrdU) incorporation method as described by the manufacturer. Inhibition of cell proliferation was assessed by BrdU incorporation.
Background: Incorporation of labelled thymidine or its analogues reports DNA synthesis.

As to “208 (Ac-RRRARQRVAIIF; also: dimer: Phe C-termini joined via Lys linker) [compound 208]”, the pIC50 is above 5.00. Take “209 (Ac-RRRRAQAVRIIF; also: dimer: Phe C-termini joined via Lys linker) [compound 209]”: the pIC50 was above 5.00. Consider “210 (Ac-RRRRAQRVAIIF; also: dimer: Phe C-termini joined via Lys linker) [compound 210]”, for which the pIC50 was above 5.00. For “211 (Ac-RRRRRQAVAIIF; also: dimer: Phe C-termini joined via Lys linker) [compound 211]”, the pIC50 is above 5.00. In the case of “212 (Ac-AARRRQRVAIIF; also: dimer: Phe C-termini joined via Lys linker) [compound 212]” it was below 4.52; in that of “213 (Ac-ARARRQRVAIIF; also: dimer: Phe C-termini joined via Lys linker) [compound 213]”, above 5.00.

Turning to “215 (Ac-ARRRAQRVAIIF; also: dimer: Phe C-termini joined via Lys linker) [compound 215]”, the pIC50 is above 5.00.

On to “216 (Ac-ARRRRQAVAIIF; also: dimer: Phe C-termini joined via Lys linker) [compound 216]”, for which the pIC50 was 4.52 to 5.00. Regarding “217 (Ac-AHHHHQHVAIIF; also: dimer: Phe C-termini joined via Lys linker) [compound 217]”, the negative logarithm of the IC50 (pIC50) was below 4.52. On to “218 (Ac-RARRRQAVAIIF; also: dimer: Phe C-termini joined via Lys linker) [compound 218]”, for which the pIC50 is above 5.00. On to “219 (Ac-RRARRQAVAIIF; also: dimer: Phe C-termini joined via Lys linker) [compound 219]”, for which the pIC50 is above 5.00. On to “220 (Ac-RRRARQAVAIIF; also: dimer: Phe C-termini joined via Lys linker) [compound 220]”, for which the pIC50 was above 5.00.

As for “221 (Ac-RRRRAQAVAIIF; also: dimer: Phe C-termini joined via Lys linker) [compound 221]”, the pIC50 was above 5.00. “222 (XHHHHQAVAIIF; Xaa = Acylated Histidine; Dimeric peptide wherein the C terminus of Phe in position 12 of one peptide chain is covalently bound to one of the amino groups of a Lysine linker and Phe of the remaining peptide chain is covalently bound to the other amino group of the Lysine linker.) [compound 222]”: the pIC50 was below 4.52. Consider “223 (Ac-ARRRRQRVAIGFK; also: homodimer via Ida linker on side chain of Lys13) [compound 223]”, for which the pIC50 was below 4.52. For “224 (Ac-ARRRRQRVAIHFK; also: homodimer via Ida linker on side chain of Lys13) [compound 224]”, the pIC50 was above 5.00. In the case of “225 (Ac-ARRRRQRVAINFK; also: homodimer via Ida linker on side chain of Lys13) [compound 225]” it was above 5.00; in that of “226 (Ac-ARRRRQRVAITFK; also: homodimer via Ida linker on side chain of Lys13) [compound 226]”, above 5.00; in that of “227 (Ac-ARRRRQRVAIWFK; also: homodimer via Ida linker on side chain of Lys13) [compound 227]”, above 5.00. Turning to “229 (XHRRRQRVRIIF; Xaa = Acylated Histidine; Dimeric peptide wherein the C terminus of Phe in position 12 of one peptide chain is covalently bound to one of the amino groups of a Lysine linker and Phe of the remaining peptide chain is covalently bound to the other amino group of the Lysine linker.) [compound 229]”, the pIC50 is above 5.00. With “230 (XRHRRQRVRIIF; Xaa = Acylated Histidine; Dimeric peptide wherein the C terminus of Phe in position 12 of one peptide chain is covalently bound to one of the amino groups of a Lysine linker and Phe of the remaining peptide chain is covalently bound to the other amino group of the Lysine linker.) [compound 230]”, the pIC50 is above 5.00. On to “231 (XRRHRQRVRIIF; Xaa = Acylated Histidine; Dimeric peptide wherein the C terminus of Phe in position 12 of one peptide chain is covalently bound to one of the amino groups of a Lysine linker and Phe of the remaining peptide chain is covalently bound to the other amino group of the Lysine linker.) [compound 231]”, for which the pIC50 is above 5.00. “232 (XRRRHQRVRIIF; Xaa = Acylated Histidine; Dimeric peptide wherein the C terminus of Phe in position 12 of one peptide chain is covalently bound to one of the amino groups of a Lysine linker and Phe of the remaining peptide chain is covalently bound to the other amino group of the Lysine linker.) [compound 232]”: the pIC50 is above 5.00.

Regarding “233 (XRRRRQHVRIIF; Xaa = Acylated Histidine; Dimeric peptide wherein the C terminus of Phe in position 12 of one peptide chain is covalently bound to one of the amino groups of a Lysine linker and Phe of the remaining peptide chain is covalently bound to the other amino group of the Lysine linker.) [compound 233]”, the pIC50 is above 5.00. In the case of “234 (XRRRRQRVHIIF; Xaa = Acylated Histidine; Dimeric peptide wherein the C terminus of Phe in position 12 of one peptide chain is covalently bound to one of the amino groups of a Lysine linker and Phe of the remaining peptide chain is covalently bound to the other amino group of the Lysine linker.) [compound 234]”, the pIC50 is above 5.00. For “235 (Ac-RHHRRQRVRIIF; also: dimer via C-terminal Phe to Lys linker) [compound 235]”, the pIC50 was above 5.00.

Turning to “236 (Ac-RHRHRQRVRIIF; also: dimer via C-terminal Phe to Lys linker) [compound 236]”, the pIC50 is above 5.00.

Take “237 (Ac-RHRRHQRVRIIF; also: dimer via C-terminal Phe to Lys linker) [compound 237]”: the pIC50 was above 5.00. With “238 (Ac-RHRRRQHVRIIF; also: dimer via C-terminal Phe to Lys linker) [compound 238]”, the pIC50 was above 5.00. For the substance “239 (Ac-RHRRRQRVHIIF; also: dimer via C-terminal Phe to Lys linker) [compound 239]”, the pIC50 was above 5.00.

One may read the pIC50 as the IC50 on a negative log10 scale, so that one unit is a factor of ten.
